Measurements published in US20070048356A1, “Antimicrobial treatment of nonwoven materials for infection control” (priority 2005, published 2007).

Assays:
C. Albicans (ATCC 10231) = assay: Dynamic Shake Flask (based on ASTM E 2149-01) on treated nonwoven; format: cell-based; details: Table 15, SMS
S. aureus = assay: Zone of inhibition test to measure leaching; format: cell-based; details: AATCC 147 and ASTM E 2149-01 protocols
Experimental: First, according to the American Association of Textile Chemists and Colorists (AATCC)-147 test protocol, in a dry-leaching test, the antimicrobial treated material is placed in an agar plate seeded with a known amount of organism population on the plate surface. The plate is then incubated for about 18-24 hours at about 35° C. or 37° C.±2° C. Afterwards, the agar plate is assessed. Any leaching of the antimicrobial from the treated material would result in a zone of inhibited microbial growth. […] The piece of material was allowed to sit for 24 hours in solution and then the supernatant of the solution was extracted. […] About 100 micro liters (μL) of supernatant is added to a 8 mm well cut into a seeded agar plate and allow to dry. […] In summary, these protocols are performed by incubating an inoculated plate containing either the actual treated material or a solution that has been exposed to the treated material. This plate is then analyzed for zones of inhibition of organism growth to detect if the antimicrobial has leached off of the material or into the solution.

[1] = test system: Staphylococcus aureus (ATCC #27660); assay: Rapid Germicidal Time Kill on treated gloves; format: cell-based; details: for log reduction of organisms: nitrile gloves, versus applied organisms estimated from latex control
Source text: In another aspect, to assess the efficacy of how rapidly the applied antimicrobial agents kill, we employed a direct contact, rapid germicidal test, developed by Kimberly-Clark Corporation. This test better simulates real world working situations in which microbes are transferred from a substrate to glove through direct contacts of short duration. Also this test permits us to assess whether contact with the surface of the glove at one position will quickly kill microbes, whereas the solution-based testing of the ASTM E 2149-01 protocol tends to provide multiple opportunities to contact and kill the microbes, which less realistic in practice.
We applied an inoculum of a known amount of microbes to the antimicrobial-treated surface of a glove. After about 3-6 minutes, we assessed the number of microbes that remained on the surface of the treated glove. […] The concentration of organisms on the surface is given at an initial Zero Time point and at 3, 5, and 30 minute points.
To test the antimicrobial efficacy of a polyhexamethylene biguanide, we treated nitrile examination gloves according to ASTM protocol 04-123409-106 “Rapid Germicidal Time Kill.” In brief, about 50 μL of an overnight culture of Staphylococcus aureus (ATCC #27660, 5×10^8CFU/mL) was applied to the glove material. After a total contact time of about 6 minutes the glove fabric was placed into a neutralizing buffer. Surviving organisms were extracted and diluted in Letheen broth. Aliquots were spread plated on Tryptic Soy Agar plates. Plates were incubated for 48 hours at 35° C. Following incubation the surviving organisms were counted and the colony forming units (CFU) were recorded. The reduction (log10) in surviving organisms from test material versus control fabric was calculated: Log10 CFU/swatch Control−Log10 CFU/swatch Test Article=Log10 Reduction.

A. Niger (ATCC 16404) = assay: Dynamic Shake Flask (based on ASTM E 2149-01) on treated nonwoven; format: cell-based; details: Table 14, Spunbond
Experimental: (§1) The test organisms are grown in 25 mL appropriate broth medium for about 24±2 hours at 37±2° C. in a wrist action shaker. The bacterial culture is then transferred by placing about 100 μL aliquot in 25 mL of broth and grown again for about 24±2 hours at 37±2° C. The organisms are then centrifuged and washed three times with phosphate buffered saline (PBS). The organisms are then suspended in PBS to obtain an inoculum of approximately 1×10^8 CFU/mL.
(§2) The test articles and control swatches are exposed to an ultraviolet light source for about 5-10 minutes per side before testing to assure that the swatches are sanitized prior to inoculation with the bacteria. The test materials are brought into contact with a known population of test bacteria from the inoculum for a specified period of time. A sample is then plated at the end of the exposure time to enumerate the surviving bacteria. The log10 reduction form the control material and the original population is calculated using the following formula: Log10 Control*−Log10 CFU/swatch Test Article=Log10 Reduction
[…] This buffer solution contains a chemical to de-activate or “neutralize” the antimicrobial agent to (a) stop the active agent from killing the organisms after the designated time period and (b) to prevent artifacts that may arise from exposing the microorganisms to the antimicrobial in solution rather than solely on the substrate. Because each chemical used as an antimicrobial agent is a little different (ie: cationic, nonionic, metal, etc), a different neutralizer was likely added in each case to shut off the antimicrobial at the desired end point of the experiment. […] The neutralizer employed may be selected from a list that is commonly used in the field. These include, non-ionic degtergents, Bisulphate, lecithin, leethen broth, thiosulfate, thioglycolate, and pH buffers, Method similar to those described in American Society for Testing and Materials, Standard Practices for Evaluating Inactivators of Antimicrobial Agents Used in Disinfectant, Sanitizer, Antiseptic, or Preserved Products, Amer. Soc. Testing Mat. E 1054-91 (1991) can be used.

[2] = test system: broad spectrum of microorganism (gram positive and gram negative bacteria, and fungi: mold and yeast); details: within 15 minutes; baseline data of Tables 12-15
Experimental: The experimental procedure is based on ASTM E 2149-01. In brief, the test is performed by first adding a 2″×2″ sample of treated material to a flask containing 50 mL of a buffered-saline solution. The flask is then inoculated with the challenge organism (6.5-7 log10 total) and shaken through mechanical means for a designated period of time. At specified time points, a sample of the solution is then removed and plated. Lastly, the plate is incubated, examined for microbial growth, and the number of colony forming units counted. The log reduction in organisms is measured by comparing the growth on the experimental plate to control plates with no antimicrobial treatment.

[3] = test system: P. aeruginosa (ATCC 9027); assay: Dynamic Shake Flask (based on ASTM E 2149-01) on treated nonwoven; format: cell-based
Experimental: as §1, §2
[…] This buffer solution contains a chemical to de-activate or “neutralize” the antimicrobial agent to (a) stop the active agent from killing the organisms after the designated time period and (b) to prevent artifacts that may arise from exposing the microorganisms to the antimicrobial in solution rather than solely on the substrate. Because each chemical used as an antimicrobial agent is a little different (ie: cationic, nonionic, metal, etc), a different neutralizer was likely added in each case to shut off the antimicrobial at the desired end point of the experiment. […] The neutralizer employed may be selected from a list that is commonly used in the field. […] Testing Mat.

[4] = Table 25, nitrile glove samples, Inoculum: 8.08

Polyhexamethylene biguanide [PHMB]
Dynamic Shake Flask Log10 Reduction (C. Albicans (ATCC 10231); contact time 1 min): 1.28 Log10 | Dynamic Shake Flask Log10 Reduction (C. Albicans (ATCC 10231); contact time 5 min): 2.38 Log10 | Dynamic Shake Flask Log10 Reduction (C. Albicans (ATCC 10231); contact time 15 min): 3.48 Log10 | zones of inhibition / leaching from the treated substrate (S. aureus): does not leach | Result (Log10 Reduction, test material versus control) ([1]; Table 23, microtextured nitrile glove, total contact time about 6 minutes): >4.7 log10 | Result (Log10 Reduction versus PFE control) ([1]; Table 24, latex glove samples, total contact time about 6 minutes): >5.83 log10 | Result (log reduction of test glove compared to control glove) [1, 4]: >1.85 log | Result (log reduction of test glove compared to control glove), class [1, 4]: NR (No Reduction = less than 0.5 log reduction of test glove compared to control glove.) | log reduction of Staphylococcus aureus ATCC 27660 ([1]; microtextured nitrile glove, machine applied at 0.03 g/glove): greater than four | log reduction of organisms ([1]; hand sprayed with no heat): greater than one | log reduction of organisms ([1]; machine sprayed under heated conditions): greater than 5 log | Dynamic Shake Flask Log10 Reduction (A. Niger (ATCC 16404); contact time 1 min): 4.00 Log10 | Dynamic Shake Flask Log10 Reduction (A. Niger (ATCC 16404); contact time 5 min): 4.00 Log10 | Dynamic Shake Flask Log10 Reduction (A. Niger (ATCC 16404); contact time 15 min): 4.00 Log10 | log10 reduction in colony forming units (CFU) [2]: ≥ 3 log10 | Dynamic Shake Flask Log10 Reduction ([3]; Table 13, Meltblown, contact time 1 min): 4 Log10 | Dynamic Shake Flask Log10 Reduction ([3]; Table 13, Meltblown, contact time 5 min): 4 Log10 | Dynamic Shake Flask Log10 Reduction ([3]; Table 13, Meltblown, contact time 15 min): 4 Log10 | Dynamic Shake Flask Log10 Reduction ([3]; Table 13, SMS, contact time 1 min): 4 Log10 | Dynamic Shake Flask Log10 Reduction ([3]; Table 13, SMS, contact time 5 min): 4 Log10 | Dynamic Shake Flask Log10 Reduction ([3]; Table 13, SMS, contact time 15 min): 4 Log10 | Dynamic Shake Flask Log10 Reduction ([3]; Table 13, Spunbond, contact time 1 min): 4 Log10 | Dynamic Shake Flask Log10 Reduction ([3]; Table 13, Spunbond, contact time 5 min): 4 Log10 | Dynamic Shake Flask Log10 Reduction ([3]; Table 13, Spunbond, contact time 15 min): 4 Log10 | Dynamic Shake Flask Log10 Reduction ([3]; Table 18, Spunbond substrate, contact time 1 min): 0.07 Log10 | Dynamic Shake Flask Log10 Reduction ([3]; Table 18, Spunbond substrate, contact time 5 min): 0.12 Log10 | Dynamic Shake Flask Log10 Reduction ([3]; Table 18, Spunbond substrate, contact time 15 min): 0.34 Log10 | Dynamic Shake Flask Log10 Reduction ([3]; Table 20, SMS substrate, contact time 1 min): 0.07 Log10 | Dynamic Shake Flask Log10 Reduction ([3]; Table 20, SMS substrate, contact time 5 min): 0.12 Log10 | Dynamic Shake Flask Log10 Reduction ([3]; Table 20, SMS substrate, contact time 15 min): 0.34 Log10
